Data as given in US20230266302A1, “SYNTHESIS AND USE OF N-BENZYL SULFONAMIDES” (THE UNIVERSITY OF TULSA, priority 2020, published 2023).

What follows are compounds tested on MCF7 (breast cancer) (assay: ATP level assay (CellTiter-Glo), percent of control). Conditions: compound 100 uM + 2DG (about 10-20 mM), two hour incubation.
Format: cell-based
From the text: (§1) In the present method, the method of using the available assays has been modified to measure the short-term effect of compounds of interest on ATP levels in the cells. […] In the modified method, the control and test cells are initially treated with the metabolic inhibitor for a period of about thirty minutes to about four hours. Typically, the treatment of the cells with the metabolic inhibitor is for one hour prior to adding the compound to be screened for anti-cancer properties. However, simultaneous treatment with the metabolic inhibitor and the compound being screened should provide satisfactory results. […] ATP synthesis in cells occurs over multiple biochemical pathways. These pathways are very responsive to metabolic inhibitors and/or changes in available nutrients. By incorporating a metabolic inhibitor which is known to impact certain pathways, the disclosed method provides for measurement of a compound's direct effects on the remaining metabolic pathways available for ATP synthesis in the cell.
(§2) Following treatment of the control and test cells with the metabolic inhibitor, the method calls for addition of the compound to be screened for anti-cancer properties to the cells. Following addition of the compound of interest, the assay is allowed to continue for about one hour to about four hours or depending on the luminescing agent up to eighteen hours. However, approximately 60 minutes will be sufficient to determine the ATP inhibiting effect of the compound to be screened on the cells. Following completion of the selected time period, the ATP level within the cell is determined. ATP levels can be determined by luminescence according to standard measuring procedures, i.e. the luminescence level of the assay from the living cells treated with the two component composition is compared to the luminescence level of the assay from the living cells without the two component composition, i.e., the control experiment. Thus, the ATP levels are determined without killing the cells during the incubation of the cells in the presence of the compound of interest. As a result, the measured reduction in ATP level corresponds directly to the inhibition of the metabolic pathways uninhibited by the metabolic blocker.
(§3) A wide variety of ATP luminescing detection reagents are available commercially. So long as the reagent produces a luminescence in the presence of ATP, the reagent will be suitable for use in the present method. Suitable reagents include but are not limited to any ATP dependent luciferase such as but not limited to firefly luciferase, other modified luciferase based reagents, i.e. luciferase derivatives. According to the rapid method for determining the anti-cancer activity of a compound, a sample of living cells is distributed across a number of testing wells. Typically, 96-well plates are used; however, the number of wells is not critical to the current method. When using a 96-well plate the number of living cells will commonly be about 20,000. The sample wells contain a cell growth medium to promote cell health and growth and an additive to prevent bacterial contamination of the wells. One common example of the cell growth medium is DMEM with 10% FBS as described above. One example of the additive to prevent bacterial contamination is a solution of penicillin G and streptomycin referred to commonly as Pen-Strep. The Pen-Strep solution typically contains 5000 units of penicillin G and 5000 micrograms of streptomycin. Thus, the rapid determination of anti-cancer compounds can be carried out using the following method. • The desired number of cells are distributed in a 96-well plate containing 100 μL DMEM plus 10% FBS with optional Pen-Strep. • After 24 hours, cells are treated with the compound of interest or a 5% solution of dimethyl sulfoxide (DMSO) in water as a control. • The time period for exposure to the compound of interest and the DMSO control will vary depending on the luminescing detection reagent. […]

Row | Compound | POC (percent of control) MCF7
1 | O=[N+]([O-])c1cccc(S(=O)(=O)NCc2c[nH]c3ccccc23)c1 [Compound 25, N-(1H-indol-3-ylmethyl)-3-nitrobenzenesulfonamide] | 92.9% of control

Same assay, conditions: compound 100 uM + rotenone (approximately 1.25 μM), two hour incubation

Row | Compound | POC (percent of control) MCF7
2 | O=[N+]([O-])c1cccc(S(=O)(=O)NCc2c[nH]c3ccccc23)c1 [Compound 25, N-(1H-indol-3-ylmethyl)-3-nitrobenzenesulfonamide] | 104.2% of control

Each compound was assayed on MDA-MB (breast cancer) in the same assay as above. Conditions: 2 h; compound alone, 100 uM, two hour incubation, control DMSO; read-out: POC (percent of control) MDA-MB.
Format: cell-based
From the text: as §1, §2, §3

Row | Compound | activity at 100 µM
3 | O=[N+]([O-])c1cccc(S(=O)(=O)NCc2c[nH]c3ccccc23)c1 [Compound 25, N-(1H-indol-3-ylmethyl)-3-nitrobenzenesulfonamide] | 103%

Same assay, conditions: compound 100 uM + 2DG (about 10-20 mM), two hour incubation

Row | Compound | POC (percent of control) MDA-MB
4 | O=[N+]([O-])c1cccc(S(=O)(=O)NCc2c[nH]c3ccccc23)c1 [Compound 25, N-(1H-indol-3-ylmethyl)-3-nitrobenzenesulfonamide] | 86.2% of control

Same assay, conditions: compound 100 uM + rotenone (approximately 1.25 μM), two hour incubation

Row | Compound | POC (percent of control) MDA-MB
5 | O=[N+]([O-])c1cccc(S(=O)(=O)NCc2c[nH]c3ccccc23)c1 [Compound 25, N-(1H-indol-3-ylmethyl)-3-nitrobenzenesulfonamide] | 88.8% of control

The compounds below were run on NCI-H196 (lung cancer) in the same assay as above. Conditions: NCI-H196, 2 h; compound alone, 100 uM, two hour incubation, control DMSO; read-out: POC (percent of control) NCI-H196.
Format: cell-based
From the text: as §1, §2, §3

Row | Compound | activity at 100 µM
6 | O=[N+]([O-])c1cccc(S(=O)(=O)NCc2c[nH]c3ccccc23)c1 [Compound 25, N-(1H-indol-3-ylmethyl)-3-nitrobenzenesulfonamide] | 305%

Same assay, conditions: compound 100 uM + 2DG (about 10-20 mM), two hour incubation

Row | Compound | POC (percent of control) NCI-H196
7 | O=[N+]([O-])c1cccc(S(=O)(=O)NCc2c[nH]c3ccccc23)c1 [Compound 25, N-(1H-indol-3-ylmethyl)-3-nitrobenzenesulfonamide] | 92.9% of control

Same assay, conditions: compound 100 uM + rotenone (approximately 1.25 μM), two hour incubation

Row | Compound | POC (percent of control) NCI-H196
8 | O=[N+]([O-])c1cccc(S(=O)(=O)NCc2c[nH]c3ccccc23)c1 [Compound 25, N-(1H-indol-3-ylmethyl)-3-nitrobenzenesulfonamide] | 83% of control

The compounds below were run on PC3 (prostate cancer) in the same assay as above. Conditions: 2 h; compound alone, 100 uM, two hour incubation, control DMSO; read-out: POC (percent of control) PC3.
Format: cell-based
From the text: as §1, §2, §3

Row | Compound | activity at 100 µM
9 | O=[N+]([O-])c1cccc(S(=O)(=O)NCc2c[nH]c3ccccc23)c1 [Compound 25, N-(1H-indol-3-ylmethyl)-3-nitrobenzenesulfonamide] | 60.2%

Same assay, conditions: compound 100 uM + 2DG (about 10-20 mM), two hour incubation

Row | Compound | POC (percent of control) PC3
10 | O=[N+]([O-])c1cccc(S(=O)(=O)NCc2c[nH]c3ccccc23)c1 [Compound 25, N-(1H-indol-3-ylmethyl)-3-nitrobenzenesulfonamide] | 96.8% of control

Same assay, conditions: compound 100 uM + rotenone (approximately 1.25 μM), two hour incubation

Row | Compound | POC (percent of control) PC3
11 | O=[N+]([O-])c1cccc(S(=O)(=O)NCc2c[nH]c3ccccc23)c1 [Compound 25, N-(1H-indol-3-ylmethyl)-3-nitrobenzenesulfonamide] | 80.1% of control

These compounds were tested on SkBr3 (breast cancer) in the same assay as above. Conditions: Homo sapiens, SK-BR-3, 2 h; compound alone, 100 uM, two hour incubation, control DMSO; read-out: POC (percent of control) SkBr3.
Format: cell-based
From the text: as §1, §2, §3

Row | Compound | activity at 100 µM
12 | O=[N+]([O-])c1cccc(S(=O)(=O)NCc2c[nH]c3ccccc23)c1 [Compound 25, N-(1H-indol-3-ylmethyl)-3-nitrobenzenesulfonamide] | 112%

Same assay, conditions: compound 100 uM + 2DG (about 10-20 mM), two hour incubation

Row | Compound | POC (percent of control) SkBr3
13 | O=[N+]([O-])c1cccc(S(=O)(=O)NCc2c[nH]c3ccccc23)c1 [Compound 25, N-(1H-indol-3-ylmethyl)-3-nitrobenzenesulfonamide] | 88.2% of control

Same assay, conditions: compound 100 uM + rotenone (approximately 1.25 μM), two hour incubation

Row | Compound | POC (percent of control) SkBr3
14 | O=[N+]([O-])c1cccc(S(=O)(=O)NCc2c[nH]c3ccccc23)c1 [Compound 25, N-(1H-indol-3-ylmethyl)-3-nitrobenzenesulfonamide] | 104.1% of control

These compounds were tested on T47D (breast cancer) in the same assay as above. Conditions: Homo sapiens, T47D, 2 h; compound alone, 100 uM, two hour incubation, control DMSO; read-out: POC (percent of control) T47D.
Format: cell-based
From the text: as §1, §2, §3

Row | Compound | activity at 100 µM
15 | O=[N+]([O-])c1cccc(S(=O)(=O)NCc2c[nH]c3ccccc23)c1 [Compound 25, N-(1H-indol-3-ylmethyl)-3-nitrobenzenesulfonamide] | 94.4%

Same assay, conditions: compound 100 uM + 2DG (about 10-20 mM), two hour incubation

Row | Compound | POC (percent of control) T47D
16 | O=[N+]([O-])c1cccc(S(=O)(=O)NCc2c[nH]c3ccccc23)c1 [Compound 25, N-(1H-indol-3-ylmethyl)-3-nitrobenzenesulfonamide] | 88.9% of control

Same assay, conditions: compound 100 uM + rotenone (approximately 1.25 μM), two hour incubation

Row | Compound | POC (percent of control) T47D
17 | O=[N+]([O-])c1cccc(S(=O)(=O)NCc2c[nH]c3ccccc23)c1 [Compound 25, N-(1H-indol-3-ylmethyl)-3-nitrobenzenesulfonamide] | 86.7% of control
